{"source": "patent US7067261B2", "about": "(priority 2001, dated 2006)", "key": {"JAK2": {"system": "JAK2", "assay_type": "cell-based"}, "PI-3 kinase": {"system": "PI-3 kinase", "assay_type": "cell-based, rat"}, "Akt": {"system": "Akt", "assay_type": "cell-based, rat"}, "[1]": {"molecular_target": "complex formation between Aβ(1–42) and α7-nAChR (Rattus norvegicus, UniProt Q05941)", "sequence (Q05941 23-502, one chain of several)": "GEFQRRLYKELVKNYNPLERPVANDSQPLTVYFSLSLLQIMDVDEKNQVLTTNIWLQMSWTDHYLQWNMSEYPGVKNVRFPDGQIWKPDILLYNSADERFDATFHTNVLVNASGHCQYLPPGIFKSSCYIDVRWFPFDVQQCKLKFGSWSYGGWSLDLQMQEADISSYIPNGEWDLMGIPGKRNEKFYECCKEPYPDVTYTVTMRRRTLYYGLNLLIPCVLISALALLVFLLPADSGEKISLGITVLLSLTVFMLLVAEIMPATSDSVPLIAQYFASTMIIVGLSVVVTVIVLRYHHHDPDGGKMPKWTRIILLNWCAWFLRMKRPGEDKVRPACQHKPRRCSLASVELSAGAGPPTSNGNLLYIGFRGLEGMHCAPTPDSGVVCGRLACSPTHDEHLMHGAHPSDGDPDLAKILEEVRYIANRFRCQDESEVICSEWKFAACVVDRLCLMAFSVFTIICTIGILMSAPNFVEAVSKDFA", "assay_type": "cell-based"}, "caspase 3": {"system": "caspase 3", "assay_type": "cell-based, rat"}, "α7": {"molecular_target": "α7 (Homo sapiens, UniProt P36544)", "test": "biochemical", "assay_type": "binding"}, "α7 nAChR": {"molecular_target": "α7 nAChR (Homo sapiens, UniProt P36544)", "sequence (P36544 23-502)": "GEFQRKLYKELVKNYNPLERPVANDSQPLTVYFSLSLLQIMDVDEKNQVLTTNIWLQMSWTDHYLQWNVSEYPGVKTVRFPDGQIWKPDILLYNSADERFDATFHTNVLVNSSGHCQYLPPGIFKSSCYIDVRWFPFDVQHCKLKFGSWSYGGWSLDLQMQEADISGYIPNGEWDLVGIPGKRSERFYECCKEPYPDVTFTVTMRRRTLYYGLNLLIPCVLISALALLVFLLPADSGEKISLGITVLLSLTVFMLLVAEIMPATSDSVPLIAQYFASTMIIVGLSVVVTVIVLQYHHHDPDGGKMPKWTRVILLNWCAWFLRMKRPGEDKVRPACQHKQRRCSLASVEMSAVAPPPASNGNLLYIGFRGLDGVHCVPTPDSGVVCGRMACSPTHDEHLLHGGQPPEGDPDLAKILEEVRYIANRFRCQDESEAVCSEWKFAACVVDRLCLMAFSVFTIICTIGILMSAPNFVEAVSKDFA", "assay_type": "cell-based"}, "ganglionic subtype α3β4": {"molecular_target": "ganglionic subtype α3β4 (Homo sapiens, UniProt P30926+P32297)", "sequence (P32297 32-505)": "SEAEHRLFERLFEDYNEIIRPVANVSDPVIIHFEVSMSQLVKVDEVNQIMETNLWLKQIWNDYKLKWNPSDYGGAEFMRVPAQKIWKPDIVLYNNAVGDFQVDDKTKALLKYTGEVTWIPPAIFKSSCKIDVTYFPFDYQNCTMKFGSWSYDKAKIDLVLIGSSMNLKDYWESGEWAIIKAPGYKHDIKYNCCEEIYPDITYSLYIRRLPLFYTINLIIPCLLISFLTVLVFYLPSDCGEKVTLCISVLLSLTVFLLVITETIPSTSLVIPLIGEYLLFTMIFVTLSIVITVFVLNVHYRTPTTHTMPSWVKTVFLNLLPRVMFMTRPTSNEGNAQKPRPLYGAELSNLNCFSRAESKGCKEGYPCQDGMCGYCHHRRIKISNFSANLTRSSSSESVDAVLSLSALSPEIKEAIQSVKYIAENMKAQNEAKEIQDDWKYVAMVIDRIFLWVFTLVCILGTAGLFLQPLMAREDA", "sequence (P30926 22-498)": "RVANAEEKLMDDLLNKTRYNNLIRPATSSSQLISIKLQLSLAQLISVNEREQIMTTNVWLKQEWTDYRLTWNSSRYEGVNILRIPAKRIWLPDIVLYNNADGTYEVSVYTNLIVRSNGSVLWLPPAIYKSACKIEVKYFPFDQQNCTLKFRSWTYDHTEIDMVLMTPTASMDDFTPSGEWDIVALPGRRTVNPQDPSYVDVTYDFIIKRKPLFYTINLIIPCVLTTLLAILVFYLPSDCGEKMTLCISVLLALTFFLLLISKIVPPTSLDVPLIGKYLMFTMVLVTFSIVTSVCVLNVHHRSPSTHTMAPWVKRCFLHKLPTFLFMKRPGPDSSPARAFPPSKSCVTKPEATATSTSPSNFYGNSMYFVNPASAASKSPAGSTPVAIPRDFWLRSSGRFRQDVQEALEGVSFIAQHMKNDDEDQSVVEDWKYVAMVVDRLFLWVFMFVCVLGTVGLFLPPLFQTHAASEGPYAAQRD", "assay_type": "cell-based"}, "muscle subtype α1β1γδ": {"molecular_target": "muscle subtype α1β1γδ (Homo sapiens, UniProt P02708+P07510+Q07001)", "sequence (P07510 23-517)": "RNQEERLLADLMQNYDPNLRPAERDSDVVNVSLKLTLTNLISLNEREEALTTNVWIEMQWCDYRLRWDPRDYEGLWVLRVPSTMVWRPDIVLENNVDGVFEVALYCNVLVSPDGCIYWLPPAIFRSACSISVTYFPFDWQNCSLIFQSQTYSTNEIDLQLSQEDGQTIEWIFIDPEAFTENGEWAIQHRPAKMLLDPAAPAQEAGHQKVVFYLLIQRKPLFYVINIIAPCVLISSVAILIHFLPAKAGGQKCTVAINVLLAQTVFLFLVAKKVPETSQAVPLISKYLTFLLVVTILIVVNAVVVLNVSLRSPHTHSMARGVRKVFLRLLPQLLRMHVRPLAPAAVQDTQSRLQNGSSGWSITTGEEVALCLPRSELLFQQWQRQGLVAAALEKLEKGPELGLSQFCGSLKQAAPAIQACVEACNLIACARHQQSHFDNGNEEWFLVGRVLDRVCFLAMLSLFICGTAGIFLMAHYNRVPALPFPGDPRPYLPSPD", "sequence (Q07001 22-517)": "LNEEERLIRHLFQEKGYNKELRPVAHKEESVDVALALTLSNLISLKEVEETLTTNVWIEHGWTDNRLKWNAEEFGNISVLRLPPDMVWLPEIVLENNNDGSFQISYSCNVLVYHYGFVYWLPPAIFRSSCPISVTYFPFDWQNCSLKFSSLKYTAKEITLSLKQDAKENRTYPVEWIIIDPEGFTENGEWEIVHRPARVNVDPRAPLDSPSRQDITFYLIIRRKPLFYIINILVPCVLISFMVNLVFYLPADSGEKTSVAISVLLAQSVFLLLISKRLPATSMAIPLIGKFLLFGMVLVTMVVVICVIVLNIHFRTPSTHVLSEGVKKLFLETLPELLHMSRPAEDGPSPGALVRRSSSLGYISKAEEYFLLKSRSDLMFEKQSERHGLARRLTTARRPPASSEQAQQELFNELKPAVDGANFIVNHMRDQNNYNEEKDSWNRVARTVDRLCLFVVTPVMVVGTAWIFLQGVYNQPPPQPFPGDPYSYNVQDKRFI", "sequence (P02708 21-457)": "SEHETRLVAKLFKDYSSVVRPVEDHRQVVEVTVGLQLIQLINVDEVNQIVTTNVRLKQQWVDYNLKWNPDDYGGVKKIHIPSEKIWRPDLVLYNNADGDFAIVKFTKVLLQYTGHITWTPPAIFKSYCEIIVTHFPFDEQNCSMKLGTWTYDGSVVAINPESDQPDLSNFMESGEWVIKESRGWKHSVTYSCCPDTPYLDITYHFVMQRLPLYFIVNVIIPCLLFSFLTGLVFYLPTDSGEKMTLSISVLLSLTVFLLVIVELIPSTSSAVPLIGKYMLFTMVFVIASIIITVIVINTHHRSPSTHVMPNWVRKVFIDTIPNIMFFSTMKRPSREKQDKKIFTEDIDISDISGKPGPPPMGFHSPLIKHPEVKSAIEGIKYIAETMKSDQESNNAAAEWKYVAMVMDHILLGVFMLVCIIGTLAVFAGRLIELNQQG", "sequence (P11230 24-501, further chain)": "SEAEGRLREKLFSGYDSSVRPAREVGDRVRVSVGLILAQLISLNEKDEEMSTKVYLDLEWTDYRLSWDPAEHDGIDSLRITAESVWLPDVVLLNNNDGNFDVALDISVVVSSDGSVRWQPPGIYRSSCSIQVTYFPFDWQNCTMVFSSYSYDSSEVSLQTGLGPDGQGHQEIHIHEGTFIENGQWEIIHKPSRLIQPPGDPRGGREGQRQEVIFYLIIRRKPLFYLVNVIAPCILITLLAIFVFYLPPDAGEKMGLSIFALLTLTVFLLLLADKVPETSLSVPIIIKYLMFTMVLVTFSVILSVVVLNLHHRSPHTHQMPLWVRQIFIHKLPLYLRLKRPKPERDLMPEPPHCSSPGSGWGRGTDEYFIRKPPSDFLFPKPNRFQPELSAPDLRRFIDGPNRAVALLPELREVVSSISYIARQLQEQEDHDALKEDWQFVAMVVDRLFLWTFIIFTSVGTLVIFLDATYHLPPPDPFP", "assay_type": "cell-based"}, "α3β2": {"molecular_target": "α3β2 (Homo sapiens, UniProt P17787+P32297)", "sequence (P32297 32-505)": "as the sequence (P32297 32-505) above", "sequence (P17787 26-502)": "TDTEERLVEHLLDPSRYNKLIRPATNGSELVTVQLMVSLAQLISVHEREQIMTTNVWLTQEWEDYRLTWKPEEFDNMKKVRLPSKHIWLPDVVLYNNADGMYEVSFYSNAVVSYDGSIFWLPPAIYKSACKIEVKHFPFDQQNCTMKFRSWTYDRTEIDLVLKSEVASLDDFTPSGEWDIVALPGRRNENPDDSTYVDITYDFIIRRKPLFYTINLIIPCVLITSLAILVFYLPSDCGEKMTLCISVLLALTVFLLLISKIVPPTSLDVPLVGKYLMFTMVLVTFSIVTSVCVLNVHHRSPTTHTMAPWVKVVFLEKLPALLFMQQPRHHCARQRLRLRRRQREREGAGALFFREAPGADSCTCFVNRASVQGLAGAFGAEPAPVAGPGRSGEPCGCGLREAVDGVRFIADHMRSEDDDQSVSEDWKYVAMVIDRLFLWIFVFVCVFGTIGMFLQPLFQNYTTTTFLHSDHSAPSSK", "assay_type": "cell-based"}, "α4β2": {"molecular_target": "α4β2 (Homo sapiens, UniProt P17787+P43681)", "sequence (P43681 29-627)": "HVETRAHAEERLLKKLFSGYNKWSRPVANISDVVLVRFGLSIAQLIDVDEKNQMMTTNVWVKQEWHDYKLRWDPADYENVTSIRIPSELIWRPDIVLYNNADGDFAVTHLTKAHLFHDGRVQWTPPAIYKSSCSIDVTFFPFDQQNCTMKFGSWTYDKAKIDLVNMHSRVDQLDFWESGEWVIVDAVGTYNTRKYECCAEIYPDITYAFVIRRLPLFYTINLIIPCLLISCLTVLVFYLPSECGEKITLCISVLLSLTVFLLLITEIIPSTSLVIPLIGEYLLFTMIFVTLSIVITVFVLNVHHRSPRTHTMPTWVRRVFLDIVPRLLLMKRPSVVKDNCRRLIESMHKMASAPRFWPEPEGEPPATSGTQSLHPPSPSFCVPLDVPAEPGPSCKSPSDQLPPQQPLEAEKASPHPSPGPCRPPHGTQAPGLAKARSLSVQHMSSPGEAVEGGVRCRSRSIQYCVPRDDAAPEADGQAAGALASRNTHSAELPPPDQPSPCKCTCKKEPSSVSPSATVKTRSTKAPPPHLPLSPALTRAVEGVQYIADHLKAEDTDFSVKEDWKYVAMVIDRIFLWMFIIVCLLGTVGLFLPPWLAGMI", "sequence (P17787 26-502)": "as the sequence (P17787 26-502) above", "assay_type": "cell-based"}, "[2]": {"system": "Reserpine-Induced Dopamine Depletion—Mice", "conditions": "mouse, in vivo; cited from earlier work"}, "PC12 cells": {"system": "PC12 cells", "assay_type": "cell-based, rat"}, "[3]": {"molecular_target": "JAK2 complex formation with the α7 receptor (Rattus norvegicus, UniProt Q05941)"}, "[4]": {"system": "6-OHDA (Partial Lesion)—Rats", "conditions": "rat, in vivo, sc, 1 mg/kg; cited from earlier work"}, "[5]": {"system": "methamphetamine toxicity in mice", "conditions": "mouse, in vivo; cited from earlier work"}, "MPTP effects, Mice": {"system": "MPTP effects, Mice", "conditions": "mouse, in vivo; cited from earlier work"}, "[6]": {"system": "poly-(ADP-ribose)polymerase (PARP)", "assay_type": "cell-based, rat"}}}
{"compound": "N#C/C(=C/c1ccc(O)c(O)c1)C(=O)NCc1ccccc1", "note": "[AG-490]", "values": [{"measurement": "effect on TC-1698-induced activation of JAK2", "setting": "JAK2", "value": "suppression of activation"}, {"measurement": "effect on basal and nicotine-stimulated JAK2 tyrosine phosphorylation", "setting": "JAK2", "value": "inhibits"}, {"measurement": "effect on TC-1698-induced activation of PI-3 Kinase", "setting": "PI-3 kinase", "value": "suppression of activation"}, {"measurement": "effect on nicotine-induced tyrosine phosphorylation of PI-3K", "setting": "PI-3 kinase", "value": "inhibits"}, {"measurement": "effect on TC-1698-induced activation of Akt", "setting": "Akt", "value": "suppression of activation"}, {"measurement": "effect on nicotine-induced serine phosphorylation of Akt", "setting": "Akt", "value": "inhibits"}, {"measurement": "effect on co-immunoprecipitation (complex formation) of Aβ(1–42) and α7-nAChR", "setting": "[1]", "value": "prevented"}, {"measurement": "effect on nicotine inhibition of Aβ(1–42)-induced caspase 3 activation", "setting": "caspase 3", "value": "prevented"}]}
{"compound": "c1cncc(C2CCC3CCN2CC3)c1", "note": "(stereo not shown) [TC-1698, 2-Pyridin-3-yl-1-aza-bicyclo[3.2.2]nonane]", "values": [{"measurement": "Ki", "setting": "α7", "value": 800, "unit": "pM"}, {"measurement": "potency in activating α7 nAChR relative to acetylcholine", "setting": "α7 nAChR", "value": 50, "unit": "fold"}, {"measurement": "activation of ganglionic subtype α3β4", "setting": "ganglionic subtype α3β4", "value": "does not activate"}, {"measurement": "activation of muscle subtype α1β1γδ", "setting": "muscle subtype α1β1γδ", "value": "does not activate"}, {"measurement": "activation of neuronal subtype α3β2", "setting": "α3β2", "value": "does not activate"}, {"measurement": "activation of neuronal subtype α4β2", "setting": "α4β2", "value": "does not activate"}, {"measurement": "phosphorylation of Jak-2", "setting": "JAK2", "value": "induces phosphorylation of Jak-2"}, {"measurement": "activation of PI-3 Kinase", "setting": "PI-3 kinase", "value": "activation"}, {"measurement": "activation of Akt", "setting": "Akt", "value": "activation"}]}
{"compound": "C[N+](C)(C)CCCCCC[N+](C)(C)C", "note": "[hexamethonium]", "values": [{"measurement": "effect on NIC blockade of reserpine-induced dopamine depletion", "setting": "[2]", "value": "not"}]}
{"compound": "CNC1(C)C2CCC(C2)C1(C)C", "note": "(stereo not shown) [mecamylamine]", "values": [{"measurement": "effect on NIC blockade of reserpine-induced dopamine depletion", "setting": "[2]", "value": "blocked"}]}
{"compound": "CN1CCCC1c1cccnc1", "note": "(stereo not shown) [nicotine]", "values": [{"measurement": "time to JAK2 tyrosine phosphorylation", "setting": "JAK2", "value": "5 to 10", "unit": "min"}, {"measurement": "effect on co-immunoprecipitation (complex formation) of Aβ(1–42) and α7-nAChR", "setting": "[1]", "value": "blocked"}, {"measurement": "effect on Aβ(1–42)-induced activation of caspase 3", "setting": "caspase 3; PC12 cells, nicotine 10 μM, Aβ(1–42) 100 nM, P<0.01", "value": "blocked"}, {"measurement": "effect on Ang II-induced apoptosis (cell number)", "setting": "PC12 cells; PC12 cells, Ang II 100 nM, 8 hours", "value": "not affected"}, {"measurement": "effect on Aβ(1–42)-induced cell death when co-incubated with AG-490", "setting": "PC12 cells; PC12 cells, Aβ(1–42) 100 nM, 8 hours", "value": "no effect"}, {"measurement": "effect on cell death induced by Aβ(1–42)", "setting": "PC12 cells; PC12 cells, Aβ(1–42) 100 nM, 8 hours, P<0.01", "value": "significantly reduced"}, {"measurement": "time to association of JAK2 with the α7 receptor", "setting": "[3]", "value": "≤ 5", "unit": "min"}, {"measurement": "reserpine-induced dopamine depletion", "setting": "[2]", "value": "blocked"}, {"measurement": "dopaminergic neurotoxicity (loss of striatal dopamine) induced by 6-OHDA", "setting": "[4]", "value": "attenuates"}, {"measurement": "methamphetamine toxicity (brain levels)", "setting": "[5]", "value": "prevents"}, {"measurement": "striatal MPP+ levels induced by MPTP", "setting": "MPTP effects, Mice", "value": "reduces"}]}
{"compound": "Ang II (DRVYIHPF; Angiotensin-2; UniProt P01019 25-32, looked up)", "values": [{"measurement": "effect of preincubation on nicotine-induced tyrosine phosphorylation of JAK2", "setting": "JAK2", "value": "blocks"}, {"measurement": "PC12 cell number", "setting": "PC12 cells", "value": "significantly reduced"}, {"measurement": "effect on nicotine-induced neuroprotection (cell viability)", "setting": "PC12 cells", "value": "complete reversal"}, {"measurement": "PARP cleavage / induction", "setting": "[6]", "value": "nicotine-insensitive PARP induction"}]}
{"compound": "Aβ(1–42)", "values": [{"measurement": "caspase 3 activity", "setting": "caspase 3", "value": "significant increase"}, {"measurement": "PC12 cell number", "setting": "PC12 cells", "value": "significant decrease"}, {"measurement": "PARP cleavage / induction", "setting": "[6]", "value": "cleaved"}]}
